Values of other authors in patent publication US9918970B2, “Pharmaceutical composition comprising solifenacin” (Astellas Pharma Inc., priority 2010, dated 2018).

Molecular target: muscarinic M3 receptor (Homo sapiens, UniProt P20309)
Sequence (P20309 whole entry): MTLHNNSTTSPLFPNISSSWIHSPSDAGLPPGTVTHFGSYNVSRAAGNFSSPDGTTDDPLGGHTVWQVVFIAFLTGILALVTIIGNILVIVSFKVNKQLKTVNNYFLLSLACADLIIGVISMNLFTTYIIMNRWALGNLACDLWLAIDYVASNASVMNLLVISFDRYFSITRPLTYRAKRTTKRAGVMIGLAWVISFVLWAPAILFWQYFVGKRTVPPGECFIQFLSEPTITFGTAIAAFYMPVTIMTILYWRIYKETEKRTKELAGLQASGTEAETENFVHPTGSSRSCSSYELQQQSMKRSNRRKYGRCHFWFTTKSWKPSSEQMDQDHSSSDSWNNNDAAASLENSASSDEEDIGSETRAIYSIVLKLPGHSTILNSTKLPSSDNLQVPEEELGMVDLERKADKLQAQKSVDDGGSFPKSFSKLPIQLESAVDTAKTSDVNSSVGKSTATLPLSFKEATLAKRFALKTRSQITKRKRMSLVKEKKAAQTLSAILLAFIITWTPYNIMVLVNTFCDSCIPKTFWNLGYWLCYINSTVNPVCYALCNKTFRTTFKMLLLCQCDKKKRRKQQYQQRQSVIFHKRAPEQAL

selectivity for the M3 receptor as compared with the M2 receptor (in words) (M3 in smooth muscle, gland tissues, M2 in heart): higher selectivity
SMILES: O=C(O[C@H]1CN2CCC1CC2)N1CCc2ccccc2[C@@H]1c1ccccc1 [solifenacin, (R)-quinuclidin-3-yl (S)-1-phenyl-1,2,3,4-tetrahydroisoquinoline-2-carboxylate]
antagonistic activity against muscarinic M3 receptor (in words): excellent selective antagonistic activity
